Entries after “also recorded” stand apart in the source; their conditions may differ. Like-named read-outs stand apart in the source and are kept apart here.
What was measured:
[1] = human, in vivo; cited from earlier work
[2] = system: stage III/IV advanced epithelial ovarian cancer resistant or refractory to platinum- and taxane-based chemotherapy; assay: Phase III clinical study of Karenitecin versus Topotecan: efficacy (PFS, OS); assay type: in vivo, human
Experimental: The Primary Endpoint of the disclosed Phase III clinical study was Progression Free Survival (“PFS”); which was defined as the time period from the date of randomization to the date of first radiographically documented Progressive Disease (“PD”) or date of death due to any cause, taking either event date that occurred first. The date of PD was determined by radiographical objective disease (RECIST) measurement method. The Secondary Endpoints of the disclosed Phase III clinical study included: (i) Overall Survival (hereinafter “OS”), defined as the time from the date of randomization to the date of death due to any cause; (ii) Incidence of anemia, defined as the proportion of patients who experience ≥grade 3 anemia based on National Cancer Institute Common Terminology Criteria for Adverse Events (NCI-CTCAE) criteria at any time post-baseline after receiving study treatment; (iii) Incidence of neutropenia (including febrile neutropenia), defined as the proportion of patients who experience ≥grade 3 neutropenia based on NCI-CTCAE criteria at any time post-baseline after receiving study treatment; and (iv) Incidence of thrombocytopenia, defined as the proportion of patients who experience ≥grade 3 thrombocytopenia based on NCI-CTCAE criteria at any time post-baseline after receiving study treatment.
All patients admitted to this Phase III clinical trial were documented to be platinum- and/or taxane-resistant or refractory and have incurable disease. […] It is important to note that, currently, there is no FDA-approved chemotherapeutic drug for this specific aforementioned indication.
Approximately 80 study centers participated in this Phase III clinical study. The primary endpoint was Progression Free Survival (PFS), defined as the time period from the date of randomization to the date of first radiographically documented progressive disease or disease progression (“PD”) or date of death due to any cause, taking the event date that occurs first.
The primary endpoint was Progression Free Survival (PFS); defined as the time period from the date of randomization to the date of first radiographically documented progressive disease (PD) or date of death due to any cause, taking the event date that occurs first. The date of PD was determined by radiographically objective disease (RECIST) measurement. Secondary Endpoints: • Overall Survival (OS), defined as the time from the date of randomization to the date of death due to any cause. • Incidence of anemia, defined as the proportion of patients who experience ≥grade 3 anemia based on National Cancer Institute Common Terminology Criteria for Adverse Events (NCI-CTCAE) criteria at any time post-baseline after receiving study treatment. • Incidence of neutropenia (including febrile neutropenia), defined as the proportion of patients who experience ≥grade 3 neutropenia based on NCI-CTCAE criteria at any time post-baseline after receiving study treatment. • Incidence of thrombocytopenia, defined as the proportion of patients who experience ≥grade 3 thrombocytopenia based on NCI-CTCAE criteria at any time post-baseline after receiving study treatment.
Patients underwent procedures throughout four (4) defined periods in this study, which are briefly described below. Various clinical, laboratory, and disease evaluations were required for each of these for each periods.
Period I (Screening and Randomization): Patient eligibility was determined by compliance with protocol-specified inclusion and exclusion criteria. Patients who signed the informed consent, and successfully complete the screening process, including documentation of disease status by radiographic measures, were randomized to receive study treatment.
Period III (End of Treatment): Within ±3 days of date of treatment discontinuation, end-of treatment procedures will be conducted during Period III.

[3] = Phase I clinical studies of intravenous Karenitecin (safety, dose-limiting toxicity); assay type: in vivo, human
Experimental: Results from three Phase I studies indicate that Karenitecin can be safely administered to patients at the dose level of 1.0 mg/m^2/day I.V. over a one hour period of time for 5 consecutive days in a 3-week treatment cycle. […] Any gastrointestinal toxicity is generally ≤grade 2 and is not dose-limiting.
Intravenous administration of Karenitecin has been evaluated in three Phase I clinical studies in patients with the following cancer types: (i) advanced solid tumors (adult patients) (see, e.g., Schilsky, R. L., Hausheer, F. H., et al., Phase I trial of Karenitecin administered intravenously daily for five consecutive days in patients with advanced solid tumors using accelerated dose titration [abstract]. ASCO Abstract 758 (2000)); (ii) refractory or recurrent solid tumors (pediatric patients); and (iii) recurrent malignant glioma (adult patients). […]

[4] = system: panel of over twenty (20) human cancer cell lines; assay: In vitro studies on a panel of human cancer cell lines; assay type: cell-based
Topoisomerase I = molecular target: T1, Topoisomerase I (Homo sapiens, UniProt P11387); assay: Topoisomerase I inhibition; assay type: biochemical
T1 sequence (P11387 1-765): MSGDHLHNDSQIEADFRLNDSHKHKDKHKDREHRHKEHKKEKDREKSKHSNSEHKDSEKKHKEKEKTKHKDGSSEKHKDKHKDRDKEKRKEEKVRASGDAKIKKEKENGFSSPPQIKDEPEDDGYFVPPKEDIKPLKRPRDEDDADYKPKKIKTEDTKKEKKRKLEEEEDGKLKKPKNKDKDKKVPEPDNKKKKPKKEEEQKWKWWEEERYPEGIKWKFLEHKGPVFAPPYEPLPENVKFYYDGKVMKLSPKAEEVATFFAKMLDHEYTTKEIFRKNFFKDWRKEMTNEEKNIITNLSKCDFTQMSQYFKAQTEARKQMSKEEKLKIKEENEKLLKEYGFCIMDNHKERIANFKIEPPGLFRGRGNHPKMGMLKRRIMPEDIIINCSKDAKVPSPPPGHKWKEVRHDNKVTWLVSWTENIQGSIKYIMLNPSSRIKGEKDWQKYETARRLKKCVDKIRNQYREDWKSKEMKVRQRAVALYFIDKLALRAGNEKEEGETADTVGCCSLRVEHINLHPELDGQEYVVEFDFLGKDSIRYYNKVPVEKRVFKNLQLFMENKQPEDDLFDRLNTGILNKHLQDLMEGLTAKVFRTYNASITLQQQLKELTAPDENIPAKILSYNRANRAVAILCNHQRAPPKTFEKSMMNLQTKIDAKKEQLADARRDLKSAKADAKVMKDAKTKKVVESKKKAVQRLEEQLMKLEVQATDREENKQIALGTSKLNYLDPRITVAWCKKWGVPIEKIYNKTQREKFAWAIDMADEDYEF

[5] = Lactone stability and lactone half-life in humans/plasma; assay type: in vivo, human
[6] = Glucuronidation / metabolism; assay type: in vitro ADME
advanced ovarian cancer = assay: Phase II study in advanced ovarian cancer patients who had failed prior treatments; assay type: in vivo, human
From the text: Intravenous administration of Karenitecin has been evaluated in three Phase I clinical studies in patients with the following cancer types: (i) advanced solid tumors (adult patients) (see, e.g., Schilsky, R. L., Hausheer, F. H., et al., Phase I trial of Karenitecin administered intravenously daily for five consecutive days in patients with advanced solid tumors using accelerated dose titration [abstract]. ASCO Abstract 758 (2000)); (ii) refractory or recurrent solid tumors (pediatric patients); and (iii) recurrent malignant glioma (adult patients). Intravenous administration of Karenitecin has also been evaluated in four Phase 2 clinical studies in adult patients with the following cancer types: (i) primary malignant glioma; (ii) treatment of persistent or recurrent epithelial ovarian or primary peritoneal carcinoma in heavily pre-treated patients; (iii) malignant melanoma (see, e.g., Hausheer, F. H., et al., Phase II trial of Karenitecin (BNP1350) in malignant melanoma: clinical and translational study [abstract]. ASCO Abstract 7554 (2004); and (iv) relapsed or refractory non-small cell lung cancer (see, e.g., Miller, A. A., et al., MR for the Cancer and Leukemia Group B. Phase II trial of Karenitecin in patients with relapsed or refractory advanced non-small cell lung cancer (CALGB 30004) Lung Cancer 48:399-407 (2005)).

[7] = human, in vivo
Experimental: The primary endpoint was Progression Free Survival (PFS); defined as the time period from the date of randomization to the date of first radiographically documented progressive disease (PD) or date of death due to any cause, taking the event date that occurs first. The date of PD was determined by radiographically objective disease (RECIST) measurement. […]
Simultaneous statistical analyses were performed on the clinical trial data from the time points when 254 and 338 Progression Free Survival (PFS) events occurred during the aforementioned Karenitecin Phase III Trial and the following results were observed. […] The PFS benefit for Karenitecin in comparison to Topotecan was determined using an Independent Review Committee (IRC).

[8] = dog, in vivo, po
[9] = in vivo, iv
[10] = system: MDR/MRP, Breast Cancer Resistance Protein (BCRP)
[11] = system: MDR/MRP, Breast Cancer Resistance Protein (BCRP); details: cited from earlier work
[12] = Preclinical toxicology, oral single daily doses for five consecutive days; details: beagle dogs
[13] = system: resistant subline of cells containing less than 4% of the topoisomerase I activity; details: subline with <4% topoisomerase I activity; cited from earlier work
MDR-expressing sublines = details: P-glycoprotein-associated MDR phenotype; cited from earlier work

Structure (SMILES): Nc1ccn([C@@H]2O[C@H](CO)[C@@H](O)C2(F)F)c(=O)n1 [Gemcitabine]
- patients with neutropenia [1]: up to 90%

Structure (SMILES): CC[C@@]1(O)C(=O)OCc2c1cc1n(c2=O)Cc2c-1nc1ccccc1c2CC[Si](C)(C)C [Karenitecin, (4S)-4-ethyl-4-hydroxy-11-[2-(trimethylsilyl)ethyl]-1H-pyrano[3′:4′:6,7]indolizino[1,2-b]quinoline-3,14(4H,12H)-dione]
- overall survival hazard ratio, Karenitecin vs Topotecan ([2]; Adenocarcinoma (grade ≥2) not otherwise specified, P-value 0.7893): 0.898
- PFS HR, Karenitecin vs Topotecan ([2]; Adenocarcinoma (grade ≥2) not otherwise specified, P-value=0.3700): 0.684
- PFS HR, Karenitecin vs Topotecan ([2]; Best response SD after 6 cycles in a first-line setting, P-value=0.9908): 0.992
- PFS HR, Karenitecin vs Topotecan ([2]; ECOG Performance Status 0, P-value=0.0249): 0.662
- PFS HR, Karenitecin vs Topotecan ([2]; ECOG Performance Status 2, P-value=0.7481): 0.896
- PFS HR, Karenitecin vs Topotecan ([2]; FIGO Stage 111B, P-value=0.6225): 0.722
- overall survival hazard ratio, Karenitecin vs Topotecan ([2]; FIGO Stage IV, P-value 0.4516): 0.892
- PFS HR, Karenitecin vs Topotecan ([2]; FIGO Stage IV, all events, P-value=0.0556): 0.741
- PFS HR, Karenitecin vs Topotecan ([2]; FIGO Stage IV, first 254 PFS events, P-value=0.0260): 0.669
- overall survival hazard ratio, Karenitecin vs Topotecan ([2]; Histological Stage: G1-well differentiated, P-value 0.974): 0.9612
- PFS HR, Karenitecin vs Topotecan ([2]; Histological Stage: G1-well differentiated, P-value=0.8561): 0.904
- PFS HR, Karenitecin vs Topotecan ([2]; Histological Stage: G2-moderately differentiated, P-value=0.2982): 0.835
- overall survival hazard ratio, Karenitecin vs Topotecan ([2]; Histopathology Class: Undifferentiated carcinoma, P-value 0.701): 0.6426
- median PFS advantage in favor of Karenitecin ([2]; Histopathology class: Mucinous adenocarcinoma subtype): 2 month
- overall survival hazard ratio, Karenitecin vs Topotecan ([2]; Histopathology class: Mucinous adenocarcinoma, P-value 0.7321): 0.841
- PFS HR, Karenitecin vs Topotecan ([2]; Histopathology class: serous adenocarcinoma, P-value=0.2829): 0.873
- PFS HR, Karenitecin vs Topotecan ([2]; Ovary as primary site of disease, P-value=0.2606): 0.885
- median progression-free survival (PFS) advantage in favor of Karenitecin (as compared with Topotecan) ([2]; overall trial population, IRC): greater than 6 week
- PFS Hazard Ratio (HR), Karenitecin vs Topotecan ([2]; overall trial population, P-value=0.261): 0.885
- PFS HR, Karenitecin vs Topotecan ([2]; resistant subject sub-population, P-value=0.144): 0.822
- PFS HR, Karenitecin vs Topotecan ([2]; subpopulation refractory or resistant and/or mucinous, first 254 PFS events, P-value=0.0849): 0.770
- principal and dose-limiting toxicity ([3]; Phase I, 1.0 mg/m^2/day I.V. over one hour, 5 consecutive days, 3-week cycle): non-cumulative, reversible myelosuppression; also recorded: reversible and non-cumulative neutropenia and thrombocytopenia
- serious hypersensitivity reactions reported by patients ([3]; patients receiving Karenitecin to date): no serious hypersensitivity reactions
- concentrations for inhibiting the growth of human and animal tumor cells in vitro [4]: nanomolar or sub-nanomolar concentrations
- antitumor potency compared with Topotecan or SN-38 ([4]; over twenty human cancer cell lines): significantly more potent antitumor agent than either Topotecan or SN-38
- Topoisomerase I inhibition (Topoisomerase I): potent inhibitor of Topoisomerase I
- half-life in active lactone form in plasma compared with other commercially-available camptothecins [5]: longer half-life in its active lactone form in plasma
- A-ring or B-ring glucuronidation [6]: does not undergo A-ring or B-ring glucuronidation
- Time to Progression (TTP) compared with historical results reported with Topotecan (advanced ovarian cancer): prolonged Time to Progression (TTP)
- Grade 3 or 4 anemia events reduced in comparison to the Topotecan arm ([7]; female, 5 days): 27.3%
- Grade 3 or 4 thrombocytopenia events reduced in comparison to the Topotecan arm ([7]; female, 5 days): 37.4%
- grade 4 neutropenia reduced in comparison to the Topotecan arm ([7]; female, 5 days): 38.2%
- safety concerns as monitored by the independent Data and Safety Monitoring Board (DSMB) [7]: no safety concerns related to Karenitecin were noted
- toxicities observed [8]: anorexia; weight loss; gastrointestinal toxicity (manifested as diarrhea with hemorrhage); occasional vomiting; and myelosuppression
- toxicities observed [9]: reversible myelosuppression (predominantly neutropenia), diarrhea, emesis and mucositis (canine)
- susceptibility to MDR/MRP drug resistance [10]: lacks susceptibility to MDR/MRP drug resistance
- sensitivity to tumor-mediated drug resistance mechanisms including BCRP [11]: insensitive to all commonly-known tumor-mediated drug resistance mechanisms
- oral MTD relative to intravenous (I.V.) MTD [12]: approximately 2 times

Structure (SMILES): CC[C@@]1(O)C(=O)OCc2c1cc1n(c2=O)Cc2cc3ccccc3nc2-1 [camptothecin]
- decrease in sensitivity of resistant subline versus wild-type parental cells [13]: 1000 fold

Structure (SMILES): COc1cccc2c1C(=O)c1c(O)c3c(c(O)c1C2=O)C[C@@](O)(C(=O)CO)C[C@@H]3O[C@H]1C[C@H](N)[C@H](O)[C@H](C)O1 [doxorubicin]
- resistance of MDR-expressing sublines relative to parental wild-type cells (MDR-expressing sublines): 200 fold

Structure (SMILES): COc1cc([C@@H]2c3cc4c(cc3[C@@H](O[C@@H]3O[C@@H]5CO[C@@H](C)O[C@H]5[C@H](O)[C@H]3O)[C@H]3COC(=O)[C@H]23)OCO4)cc(OC)c1O [etoposide]
- resistance of MDR-expressing sublines relative to parental wild-type cells (MDR-expressing sublines): 200 fold

Reference: patent US10413538B2, “Administration of karenitecin for the treatment of platinum and/or taxane chemotherapy-resistant or -refractory advanced ovarian cancer” (priority 2013, dated 2019)
